Measurements published in patent publication US20210401782A1, “COMPOSITION FOR PREVENTING AND TREATMENT OF STROKE” (NEUROBIOGEN CO.,LTD, priority 2018, published 2021).

How the values were obtained:
Assay type in all cases: in vivo, SD rat
rodent stroke model [1] = test: cylinder test in rodent stroke model; settings: Stroke+KDS2010: 10 mg/kg orally once a day, no rehabilitation; compared to the control group
Description: (§1) Light stimuli was applied to the posterior limb of the internal capsule of a 9 week-old SD rat to produce a white-matter cerebral infarction animal model.
(§2) Specifically, the animal was anesthetized with an anesthetic drug, a combination of ketamine (ketamine hydrochloride, 100 mg/kg) and xylazine (7 mg/kg), and a hole was drilled at a position of 2.0 mm rearwards and 3.1 mm laterally outwards from the skull bregma using stereotaxis, and an optical fiber (inner diameter of 62.5 μm, outer diameter of 125 μm) was inserted to a depth of 7.2 mm to target the posterior limb of the internal capsule. Rose bengal (20 mg/kg) was injected into the tail vein, and optical stimulation was conducted using a 3.7 mW green laser for 1.5 minutes through an optical fiber. Then, the optical fiber was removed and the operation was completed, ketoprofen (2 mg/kg) was injected for pain control, and then the animal was allowed to recover. The control group was injected with 0.9% saline, instead of rose bengal. […]
For the cylinder test, animals were placed in a transparent cylinder (20 cm in diameter and 30 cm in height) to observe which limb was used more when supporting the cylinder wall with the forelimbs. A total of 20 movements were recorded, and the ratio of the use of the forelimb corresponding to the stroke and the opposite forelimb was calculated during the total number of cycles.

rodent stroke model [2] = test: single-pellet reaching task (SPRT) in rodent stroke model; settings: Stroke+rehab+KDS2010: 10 mg/kg orally once a day plus rehabilitation training; white-matter cerebral infarction rat model
Description: as §1, §2
For the single-pellet reaching task, an acrylic box (45 cm×13 cm×40 cm) having a 1 cm vertical slit on the front wall thereof was used, and a sugar pellet was placed in front of the slit. […] The proportion of the number of pellets remaining in the mouth, without dropping, to 20 pellets in total was calculated.

rodent stroke model [3] = test: neurofiber staining, size of the infarction in an internal capsule; settings: 10 mg/kg orally once a day
Description: as §1
Specifically, the animal was anesthetized with an anesthetic drug, a combination of ketamine (ketamine hydrochloride, 100 mg/kg) and xylazine (7 mg/kg), and a hole was drilled at a position of 2.0 mm rearwards and 3.1 mm laterally outwards from the skull bregma using stereotaxis, and an optical fiber (inner diameter of 62.5 μm, outer diameter of 125 μm) was inserted to a depth of 7.2 mm to target the posterior limb of the internal capsule. Rose bengal (20 mg/kg) was injected into the tail vein, and optical stimulation was conducted using a 3.7 mW green laser for 1.5 minutes through an optical fiber. Then, the optical fiber was removed and the operation was completed, ketoprofen (2 mg/kg) was injected for pain control, and then the animal was allowed to recover. The control group was injected with 0.9% saline, instead of rose bengal.
Rats in the group administered with KDS2010 as a drug were orally administered with a solution of KDS2010 in saline at a concentration of 10 mg/kg once a day (FIG. 2A).
Rats in the rehabilitation-trained group practiced a single-pellet reaching task (SPRT) for 20 minutes daily for 3 weeks after stroke surgery. […]

C[C@H](NCc1ccc(-c2ccc(C(F)(F)F)cc2)cc1)C(N)=O [KDS2010, (S)-2-(((4′-trifluoromethylbiphenyl-4-yl)methyl)amino)propanamide methanesulfonate]
motor function using the cylinder test (rodent stroke model [1]): significantly recovered motor function | motor function through single-pellet reaching task (rodent stroke model [2]): recovered motor function to an almost normal level | size of the infarction in the internal capsules (rodent stroke model [3]; Stroke+KDS: drug-administered group, no rehabilitation, versus control group): considerably larger size of the infarction | size of the infarction in the internal capsules (rodent stroke model [3]; Stroke+rehab+KDS: rehabilitation training in combination with drug administration): further reduced infarction sizes
